# Measurements as given in ChEMBL document CHEMBL5370661, “Development of Fluorescent AF64394 Analogues Enables Real-Time Binding Studies for the Orphan Class A GPCR GPR3” (J Med Chem, 2023).
# Activity calls are given as the source filed them. The rule behind the calls is not given here.
# Tests used:
# [1] = molecular target: T1, G-protein coupled receptor 3 (Homo sapiens, UniProt P46089); test: Binding affinity to N-terminal 3xHA/Nluc-tagged full-length wild-type human GPR3 expressed in HEK293A cells using vivazine as substrate measured for 180 mins by time-course saturation based NanoBRET assay; format: cell-based; conditions: for Activity: HEK293-A
# [2] = molecular target: T1, G-protein coupled receptor 3; test: Binding affinity to N-terminal 3xHA/Nluc-tagged full-length wild-type human GPR3 expressed in HEK293A cells using vivazine as substrate at <10 uM measured for 180 mins by time-course saturation based NanoBRET assay; format: cell-based; conditions: HEK293-A
# [3] = molecular target: T1, G-protein coupled receptor 3; test: Binding affinity to N-terminal 3xHA/Nluc-tagged full-length wild-type human GPR3 expressed in HEK293A cells using vivazine as substrate by time-course saturation based NanoBRET assay; format: cell-based; conditions: HEK293-A, time 180.0 min, TDE = time-dependent effect
# [4] = molecular target: T1, G-protein coupled receptor 3; test: Total binding affinity to N-terminal 3xHA/Nluc-tagged full-length wild-type human GPR3 expressed in HEK293A cells using furimazine as substrate measured for 3 hrs by NanoBRET assay; format: cell-based, HEK293-A
# [5] = molecular target: T1, G-protein coupled receptor 3; test: Binding affinity to N-terminal 3xHA/Nluc-tagged full-length wild-type human GPR3 expressed in HEK293A cells using vivazine as substrate at <=30 uM measured for 180 mins by time-course saturation based NanoBRET assay; format: cell-based; conditions: HEK293-A
# [6] = molecular target: T1, G-protein coupled receptor 3; test: Inverse agonist activity at N-terminal 3xHA/Nluc-tagged full-length wild-type human GPR3 expressed in HEK293A cells co-expressing Fluc-tagged CRE assessed as reduction in CRE gene expression at 10 uM incubated for 24 hrs by luciferase based assay; format: functional, cell-based; conditions: HEK293-A, filed as inverse agonist
# [7] = system: G-protein coupled receptor 3 (Homo sapiens), P46089 [V186W,V187W,Y188W]; test: Binding affinity to Nluc-tagged GPR3 V186W/V187W/Y188W mutant (unknown origin) expressed in HEK293A cells assessed as decrease in cAMP level by biosensor based FRET assay; format: cell-based; conditions: HEK293-A
# [8] = Specific binding affinity to N-terminal 3xHA/Nluc-tagged full-length wild-type human GPR12 expressed in HEK293A cells using furimazine as substrate measured for 3 hrs by NanoBRET assay; format: cell-based; conditions: hek293-a
# HEK293-A [9] = test: Downregulation of CRE gene activity in HEK293-A cells expressing GPR12 incubated for 24 hrs by luciferase based assay; format: functional, cell-based; conditions: Homo sapiens
# [10] = molecular target: T1, G-protein coupled receptor 3; test: Modulation of N-terminal 3xHA/Nluc-tagged full-length wild-type human GPR3 expressed in HEK293A cells using furimazine as substrate at 1 uM measured for 3 hrs in presence of DPI by NanoBRET assay; format: cell-based, HEK293-A
# [11] = system: G-protein coupled receptor 3 (Homo sapiens), P46089 [Y188W]; test: Binding affinity to Nluc-tagged GPR3 Y188W mutant (unknown origin) expressed in HEK293A cells assessed as decrease in cAMP level by biosensor based FRET assay; format: cell-based; conditions: HEK293-A, filed as modulator
# HEK293-A [12] = test: Binding affinity to Nluc-tagged GPR3 T279A/Y280A mutant (unknown origin) expressed in HEK293A cells assessed as decrease in cAMP level by biosensor based FRET assay; format: cell-based; conditions: Homo sapiens, filed as modulator
# [13] = molecular target: T1, G-protein coupled receptor 3; test: Binding affinity to N-terminal 3xHA/Nluc-tagged full-length wild-type human GPR3 expressed in HEK293A cells using vivazine as substrate assessed as increase in BRET ratio by time-course saturation based NanoBRET assay; format: cell-based; conditions: HEK293-A, filed as modulator
# [14] = system: G-protein coupled receptor 3 (Homo sapiens), P46089 [V187W,Y188W]; test: Binding affinity to Nluc-tagged GPR3 V187W/Y188W mutant (unknown origin) expressed in HEK293A cells assessed as decrease in cAMP level by biosensor based FRET assay; format: cell-based; conditions: HEK293-A, filed as modulator
# [15] = molecular target: T1, G-protein coupled receptor 3; test: Specific binding affinity to N-terminal 3xHA/Nluc-tagged full-length wild-type human GPR3 expressed in HEK293A cells using furimazine as substrate measured for 3 hrs by NanoBRET assay; format: cell-based, HEK293-A
# [16] = molecular target: T2, G-protein coupled receptor 6 (Homo sapiens, UniProt P46095); test: Specific binding affinity to full-length wild-type human brain GPR6 expressed in HEK293A cells using furimazine as substrate measured for 3 hrs by NanoBRET assay; format: cell-based, HEK293-A
# [17] = molecular target: T2, G-protein coupled receptor 6; test: Competitive total binding affinity to full-length wild-type human brain GPR6 expressed in HEK293A cells using furimazine as substrate at 1 uM measured for 3 hrs in presence of CVN424 by NanoBRET assay; format: cell-based, HEK293-A
# HEK293-A [18] = test: Downregulation of CRE gene activity in HEK293-A cells expressing GPR6 incubated for 24 hrs by luciferase based assay; format: functional, cell-based; conditions: Homo sapiens
# [19] = molecular target: T1, G-protein coupled receptor 3; test: Competitive total binding affinity to N-terminal 3xHA/Nluc-tagged full-length wild-type human GPR3 expressed in HEK293A cells using furimazine as substrate at 1 uM measured for 3 hrs in presence of AF64394 by NanoBRET assay; format: cell-based, HEK293-A
# [20] = molecular target: T1, G-protein coupled receptor 3; test: Binding affinity to N-terminal 3xHA/Nluc-tagged full-length wild-type human GPR3 expressed in HEK293A cells using vivazine as substrate at 20 to 30 uM measured for 180 mins by time-course saturation based NanoBRET assay; format: cell-based; conditions: HEK293-A, dose 20-30 µM
# [21] = Chemical stability of compound in aqueous solution assessed as compound degradation incubated for 104 days by RP-HPLC analysis; format: physicochemical; conditions: buffer, 2496 h; time 104 day
# [22] = molecular target: T1, G-protein coupled receptor 3; test: Binding affinity to N-terminal 3xHA/Nluc-tagged full-length wild-type human GPR3 expressed in HEK293A cells assessed as increase in BRET ratio incubated for 180 mins by NanoBRET assay; format: cell-based; conditions: HEK293-A
# [23] = Chemical stability of compound in DMSO assessed as compound degradation incubated for 104 days by RP-HPLC analysis; format: physicochemical; conditions: 2496 h; time 104 day
# T2 sequence (P46095 whole entry): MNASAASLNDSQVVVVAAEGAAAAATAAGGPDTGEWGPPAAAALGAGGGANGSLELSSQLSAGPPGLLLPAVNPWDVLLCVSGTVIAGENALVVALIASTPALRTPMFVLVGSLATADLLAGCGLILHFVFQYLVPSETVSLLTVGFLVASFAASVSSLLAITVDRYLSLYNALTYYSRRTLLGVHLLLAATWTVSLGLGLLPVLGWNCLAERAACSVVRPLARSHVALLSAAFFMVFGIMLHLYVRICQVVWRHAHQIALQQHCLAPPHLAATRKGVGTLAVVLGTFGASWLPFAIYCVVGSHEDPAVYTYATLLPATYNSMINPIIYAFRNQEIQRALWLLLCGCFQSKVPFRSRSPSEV
# T1 sequence (P46089 whole entry): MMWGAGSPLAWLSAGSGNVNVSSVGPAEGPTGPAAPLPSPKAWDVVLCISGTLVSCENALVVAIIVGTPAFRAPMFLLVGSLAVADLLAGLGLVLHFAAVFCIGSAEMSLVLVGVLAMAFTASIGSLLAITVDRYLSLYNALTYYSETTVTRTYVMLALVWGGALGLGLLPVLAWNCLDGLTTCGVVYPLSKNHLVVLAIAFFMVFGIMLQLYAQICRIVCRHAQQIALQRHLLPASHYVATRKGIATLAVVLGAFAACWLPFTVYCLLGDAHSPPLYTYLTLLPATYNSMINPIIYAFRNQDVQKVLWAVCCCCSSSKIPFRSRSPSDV
# Chain of G-protein coupled receptor 3 (Homo sapiens), P46089 [V186W,V187W,Y188W] (P46089 whole entry V186W/V187W/Y188W): as the sequence (P46089 whole entry) above, with V186W, V187W, Y188W counted along it
# Chain of G-protein coupled receptor 3 (Homo sapiens), P46089 [Y188W] (P46089 whole entry Y188W): as the sequence (P46089 whole entry) above, with Y188W counted along it
# Chain of G-protein coupled receptor 3 (Homo sapiens), P46089 [V187W,Y188W] (P46089 whole entry V187W/Y188W): as the sequence (P46089 whole entry) above, with V187W, Y188W counted along it
Activity [1],Activity [3],EC50 [4] [nM],Activity [5],SMILES,other results
Dose-Dependent Effect,Tde,> 10000,Active,CC(C)Oc1cc(Cl)ccc1CNc1cc(-c2cccc(OCCOCCOCCOCCNC(=O)c3ccc(-c4c5ccc(N(C)C)cc5[o+]c5cc(N(C)C)ccc45)c(C(=O)[O-])c3)c2)nc2ncnn12,Activity [2]: inactive
–,–,–,–,CC(C)Oc1cc(Cl)ccc1CNc1cc(-c2cc(F)ccc2Cl)nc2ncnn12,Activity [6]: Active; Activity [7]: inactive
–,–,891,–,CC(C)Oc1cc(Cl)ccc1CNc1cc(-c2ccccc2OCCCCCCNC(=O)c2ccc(-c3c4ccc(N(C)C)cc4[o+]c4cc(N(C)C)ccc34)c(C(=O)[O-])c2)nc2ncnn12,pKd [8]: 7.12; Activity (HEK293-A [9]): Active; Kd [1]: 102 nM; Activity ([1]; filed as modulator): Dose-Dependent Effect; EC50 [10]: 1410 nM; Activity [11]: Active; Activity (HEK293-A [12]): Active; Activity ([3]; filed as modulator): Tde; Activity [13]: Dose-Dependent Effect; Activity [14]: Active; Activity [6]: Active; Kd [15]: 302 nM; Kd [16]: 66.1 nM; IC50 [17]: 214 nM; Ki [17]: 13.2 nM; Activity ([7]; filed as modulator): Active; Activity (HEK293-A [18]): Active; IC50 [19]: 1260 nM; Ki [19]: 295 nM; Activity ([5]; filed as modulator): Active
Dose-Dependent Effect,Tde,3390,Active,CC(C)Oc1cc(Cl)ccc1CNc1cc(-c2ccccc2OCCOCCOCCOCCNC(=O)c2ccc(-c3c4ccc(N(C)C)cc4[o+]c4cc(N(C)C)ccc34)c(C(=O)[O-])c2)nc2ncnn12,Activity [20]: inactive; Stability [21]: Stable
–,–,–,–,CN(C)c1ccc2c(-c3ccc(C(=O)NCCCC(=O)Nc4ccc(CCN5CN(c6ccccc6)C6(CCN(CCCC(=O)c7ccc(F)cc7)CC6)C5=O)cc4)cc3C(=O)[O-])c3ccc(N(C)C)cc3[o+]c2c1,Activity [22]: inactive
Dose-Dependent Effect,Tde,4470,Active,CC(C)Oc1cc(Cl)ccc1CNc1cc(-c2ccccc2OCCOCCOCCOCCOCCOCCNC(=O)c2ccc(-c3c4ccc(N(C)C)cc4[o+]c4cc(N(C)C)ccc34)c(C(=O)[O-])c2)nc2ncnn12,Activity [20]: inactive
inactive,–,> 31600,–,COCC[N+]1=C(/C=C/C=C2/N(CCCCCC(=O)NCCOCCOCCOCCOc3ccc(-c4cc(NCc5ccc(Cl)cc5OC(C)C)n5ncnc5n4)cc3)c3ccc(S(=O)(=O)O)cc3C2(C)CCCS(=O)(=O)O)C(C)(CCCS(=O)(=O)O)c2cc(S(=O)(=O)[O-])ccc21 (configuration not stated),–
Dose-Dependent Effect,Tde,4470,Active,CC(C)Oc1cc(Cl)ccc1CNc1cc(-c2cccc(OCCCCCCNC(=O)c3ccc(-c4c5ccc(N(C)C)cc5[o+]c5cc(N(C)C)ccc45)c(C(=O)[O-])c3)c2)nc2ncnn12,Stability [23]: Stable
inactive,–,> 31600,–,CC(C)Oc1cc(Cl)ccc1CNc1cc(-c2ccccc2OCCOCCOCCOCCNC(=O)CCCCCN2/C(=C/C=C/C3=[N+](CCOO)c4ccc(S(=O)(=O)O)cc4C3(C)CCCS(=O)(=O)[O-])C(C)(CCCS(=O)(=O)O)c3cc(S(=O)(=O)O)ccc32)nc2ncnn12 (configuration not stated),–
Dose-Dependent Effect,Tde,> 10000,Active,CC(C)Oc1cc(Cl)ccc1CNc1cc(-c2ccc(OCCOCCOCCOCCNC(=O)c3ccc(-c4c5ccc(N(C)C)cc5[o+]c5cc(N(C)C)ccc45)c(C(=O)[O-])c3)cc2)nc2ncnn12,Activity [2]: inactive
inactive,–,> 31600,–,COCC[N+]1=C(/C=C/C=C2/N(CCCCCC(=O)NCCOCCOCCOCCOc3cccc(-c4cc(NCc5ccc(Cl)cc5OC(C)C)n5ncnc5n4)c3)c3ccc(S(=O)(=O)O)cc3C2(C)CCCS(=O)(=O)O)C(C)(CCCS(=O)(=O)O)c2cc(S(=O)(=O)[O-])ccc21 (configuration not stated),–
inactive,–,> 31600,–,COCC[N+]1=C(/C=C/C=C2/N(CCCCCC(=O)NCCOCCOCCOCCOCCOCCOc3ccccc3-c3cc(NCc4ccc(Cl)cc4OC(C)C)n4ncnc4n3)c3ccc(S(=O)(=O)O)cc3C2(C)CCCS(=O)(=O)O)C(C)(CCCS(=O)(=O)O)c2cc(S(=O)(=O)[O-])ccc21 (configuration not stated),–
Dose-Dependent Effect,Tde,11200,Active,CC(C)Oc1cc(Cl)ccc1CNc1cc(-c2ccc(OCCCCCCNC(=O)c3ccc(-c4c5ccc(N(C)C)cc5[o+]c5cc(N(C)C)ccc45)c(C(=O)[O-])c3)cc2)nc2ncnn12,–
